Here are results for one molecule from article PMC7906907, “Targeting STAT3 by a small molecule suppresses pancreatic cancer progression” (Oncogene, 2021).

The target in data set [1] is T1, STAT3^127–722 protein (Homo sapiens, UniProt P40763).
T1 construct: made in house
As to the kind of experiment: Surface plasmon resonance (SPR) assay. It counts as binding. As to the method:
Surface plasmon resonance (SPR) analysis was conducted with a Biacore T200 instrument (GE Healthcare) with CM5 sensor chip (GE Healthcare). To test N4 binding of STAT3^127–722 protein, serially diluted concentrations of N4 were injected into the flow system. Experiments were conducted using phosphate buffered saline (PBS) and the analyte was injected at the flow rate of 30 μL/min. The association time was 60 s and the dissociation time was 30 s. Since N4 was dissolved in PBS containing 5% dimethyl sulfoxide and a solvent correction assay was performed to adjust the results. STAT3^127–722 protein was immobilized on the sensor chip (CM5) using the amine-coupling method according to standard protocols. N4 or Stattic at various concentrations were injected into the flow system. […] The KD values were calculated with the kinetics and affinity analysis option of Biacore T200 plus evaluation software (version 3.0).
(In SPR one partner is held on a chip, and binding of the other changes the refractive index at the surface.)

Data set [2] has as its system STAT3. As to the kind of experiment: STAT3-response dual luciferase reporter assay. It counts as cell-based. As to the method:
Fig. 1 N4 inhibits STAT3 dimerization and transcription in vitro. A Purified STAT3 protein was incubated with labeled phosphopeptide, 5-carboxyfluorescein-GpYLPQTV-NH2 for 1 h at 37 °C. FP signals were measured, and the data were analyzed using Graph Pad 7.0 software. B Chemical structure of N4. C Different concentrations of N4 were pre-incubated with recombined STAT3 protein for 1 h, then 10 nM of labeled peptide was added for 1 h. The IC50 was calculated using Graph Pad 7.0. D, E, F STAT3 specific luciferase reporter plasmid was transiently transfected into 293T cells. After 24 h transfection, IL-6 (20 ng/mL), OSM (10 ng/mL), and V-SRC expression plasmid (200 ng) was used to activate STAT3 luciferase activity, N4 was added at the indicated concentrations. Renilla luciferase activities were used as an internal reference (n = 2 per group). The values are expressed as mean ± SD and the bars indicate statistically significant differences (t test), *P < 0.05; **P < 0.01; ***P < 0.001.
Dual luciferase assay was performed as previously described. […] Renilla and firefly luciferase activities were determined by luminometry using the Dual Luciferase Reporter Assay System (Promega). The ratio was calculated.
Supplementary Figure 5. […] The values are expressed as mean ± SD and the bars indicate statistically significant differences (t-test), *P < 0.05; **P < 0.01; ***P < 0.001. […]
For orientation: In a reporter assay the amount or activity of a reporter protein is the signal.

In data set [3] the target is His-STAT3^127-722 protein (Homo sapiens, UniProt P40763). As to the kind of experiment: Fluorescence polarization (FP) assay, STAT3-phosphopeptide interaction. Particulars: N4 pre-incubated with STAT3 protein 1 h, then 10 nM labeled peptide 1 h; read-out: IC50, block of the STAT3-peptide interaction. The data set is classed as binding. Also on record: We purified amino acids 127–722 of the STAT3 protein for this assay; made in house. In general terms: Fluorescence polarisation rises when a labelled molecule tumbles more slowly, as on binding a larger partner.
Chain of His-STAT3^127-722 protein (P40763 127-722): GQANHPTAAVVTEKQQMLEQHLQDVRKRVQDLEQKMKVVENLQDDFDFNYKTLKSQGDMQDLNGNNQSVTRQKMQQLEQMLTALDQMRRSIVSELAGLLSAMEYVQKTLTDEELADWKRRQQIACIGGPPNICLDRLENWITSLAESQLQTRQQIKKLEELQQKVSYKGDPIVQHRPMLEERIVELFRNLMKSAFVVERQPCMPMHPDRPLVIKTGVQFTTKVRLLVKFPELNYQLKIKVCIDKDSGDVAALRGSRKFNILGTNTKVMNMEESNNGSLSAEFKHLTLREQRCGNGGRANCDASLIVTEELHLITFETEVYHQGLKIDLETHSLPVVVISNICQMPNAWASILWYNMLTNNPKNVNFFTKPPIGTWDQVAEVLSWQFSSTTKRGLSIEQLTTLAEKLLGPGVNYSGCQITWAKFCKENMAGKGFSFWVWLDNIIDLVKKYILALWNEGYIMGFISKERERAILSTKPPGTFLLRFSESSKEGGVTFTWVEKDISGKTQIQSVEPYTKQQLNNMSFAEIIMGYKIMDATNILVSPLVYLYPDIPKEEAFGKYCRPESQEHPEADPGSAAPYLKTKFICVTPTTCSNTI
Experimental: A Purified STAT3 protein was incubated with labeled phosphopeptide, 5-carboxyfluorescein-GpYLPQTV-NH2 for 1 h at 37 °C. FP signals were measured, and the data were analyzed using Graph Pad 7.0 software. […] C Different concentrations of N4 were pre-incubated with recombined STAT3 protein for 1 h, then 10 nM of labeled peptide was added for 1 h. The IC50 was calculated using Graph Pad 7.0.
The labeled phosphopeptide: 5-carboxyfluorescein-GpYLPQTV-NH2 (where pY represents phospho-Tyr) was used as the STAT3 binding probe. To evaluate the effect of compounds in inhibiting STAT3-peptide interaction, serial dilutions of the STAT3 competitors were prepared. The diluted compounds were added to the reaction mixture in 100 μl of FP buffer (50 mM HEPES, pH 7.5, 150 mM NaCl, 0.1% NP-40, and 1 mM dithiothreitol) containing 500 nM his-STAT3^127–722 protein for pre-incubation at 37 °C for 1 h. Then, 10 nM of the labeled peptide was added and incubated for 1 h. After incubation, FP was measured on a Cytation^TM 5 cell imaging multi-mode Reader (BioTek) using excitation and emission wavelengths of 480 nm and 535 nm, respectively. Each reaction was repeated two or three times. Binding or competitive parameters were calculated from a nonlinear regression using GraphPad Prism 7.0.

The test system of data set [4] is PANC-1. Description: PANC-1 subcutaneous tumor growth xenograft model. The data set is classed as in vivo. How it is done:
Fig. 5 N4 suppresses pancreatic cancer growth in vivo. PANC-1 cells were injected into the right flank of BALB/c-nude mice. After the volume of tumor nodules reached 200–300 mm^3, the mice were randomly assigned to the indicated groups and were injected intraperitoneally daily with vehicle (n = 7), 40 mg/kg/d C188-9 (n = 7), 10 mg/kg/d N4 (n = 8), or 20 mg/kg/d N4 (n = 8). The mice were sacrificed after treatment for 20 days and the tumors from each group of mice were excised. A, B Tumor volumes were measured every 4 days. Tumor volumes were calculated by the formula: length × width^2 × 0.52. […] C After treatment for 20 days, the tumors from each group of mice were excised and photographed. D After the experiments, all the tumors were weighted. […] E Tumor samples were collected, and protein was extracted for western blot analysis. p-STAT3 (Y705), p-STAT3(S727), STAT3, and CMYC were detected, with GAPDH used as the loading control. Immunohistochemistry examinations were performed in the different treatment groups, p-STAT3 (Y705), Ki-67 and cleaved caspase3 were quantified (F) and photographed (G). The scale bar denotes 20 μm. Data are expressed as mean ± SD, **P < 0.01, ****P < 0.0001 and n.s. not significant by one-way ANOVA.
BALB/c-nude, male, 6–8-week-old mice were obtained from the Animal Center of East China Normal University. All animal experimental protocols were approved by the Animal Investigation Committee of the Institute of Biomedical Sciences, East China Normal University. PANC-1 cells (5 × 10^6) were suspended in PBS with 50% Matrigel and injected into the right flank of the mice. Treatment began after the tumor nodules reached 150–250 mm^3 in volume. The tumor-bearing mice were randomly assigned to four groups and treated with the indicated compounds. The tumor volume and mice body weight were measured after 4 days. The tumor volume (V) was calculated as length × width × width × 0.52. At the end of experiment, the mice were sacrificed. Solid tumors were removed and processed for immunohistochemistry analysis.

Data set [5] concerns Pancreatic cancer cells. As to the kind of experiment: Trans-well migration. The data set is classed as cell-based. As to the method:
independent assays; *P < 0.05, **P < 0.01, ***P < 0.001, ****p < 0.0001 by one-way ANOVA followed by multiple comparisons. (C) Pancreatic cancer cells were seeded in the top chamber of Trans-well inserts and treated with N4 the following day. The lower chamber was fixed, stained, and photographed. Experiments were carried out in triplicate with identical results obtained. Data shown as mean ± SD; **P < 0.01, ****p < 0.0001 by Student’s t-tests. Scale bar, 100 μm.

Several values for one entry are separate records, joined by “and”; a condition that tells them apart may be missing. Equal values may be shown once.

T1 sequence (P40763 127-722): as above

`COc1cc2c(cc1C(=O)Nc1cccc3cccnc13)CCC1C(C)(C)C(=O)C(C#N)=C[C@]21C` (stereo partly drawn) [N4] gave a dissociation constant (Kd) in data set [1] (SPR, STAT3^127–722 immobilized on CM5 chip, 25 °C) of 1040 nM. Further, the “improvement of binding affinities to STAT3 than Stattic” value in data set [1] (in FP and SPR experiments) is given as “approximately tenfold improvement”. Moreover, in data set [2] (293T cells, IL-6, OSM or V-SRC induced), the “STAT3-dependent luciferase reporter activity” value is “suppressed”. Also, in data set [2] (PANC-1 and BXPC-3 cells, with or without IL-6 stimulation), the STAT3-response luciferase activities entry is “efficiently inhibited”. Besides, the concentration for half-maximal inhibition (IC50) in data set [3] was 570 nM and 568 nM. Besides, the bodyweight of mice result in data set [4] (10 and 20 mg/kg/d) is “did not affect”. Also, the “pancreatic cancer growth (tumor volume)” value in data set [4] (10 and 20 mg/kg/d, intraperitoneally daily, 20 days) is given as “significantly inhibited”. The “Hematoxylin and eosin staining of main organs, signs of toxicity” value in data set [4] (mouse, in vivo) is “did not produce morphological signs of toxicity”. The pancreatic cancer migration result in data set [5] is on record as “efficiently blocked”.

As a reminder, the Kd is the concentration at which binding is half-saturated. A word on the IC50: it is the concentration that gives 50% inhibition.
